# Results from ChEMBL document CHEMBL1149860, “Synthesis and neuropharmacological characterization of 2-O-substituted apomorphines” (Bioorg Med Chem, 2008).
# How the values were obtained:
# [1] = target: T1, D(2) dopamine receptor (Rattus norvegicus, UniProt P61169); assay: Displacement of [3H]raclopride from dopamine D2 receptor in rat striatal membrane; format: cell membranes, Striatum
# [2] = target: T1, D(2) dopamine receptor; assay: Displacement of [3H]raclopride from rat dopamine D2(short) receptor expressed in CHOK1 cells; format: cell-based, CHO-K1
# [3] = target: D(1A) dopamine receptor (Mus musculus, UniProt Q61616); assay: Displacement of [3H]SCH23390 from dopamine D1 receptor in mouse Ltk- fibroblast cells; format: cell-based
# Sequence of D(1A) dopamine receptor (Q61616 whole entry): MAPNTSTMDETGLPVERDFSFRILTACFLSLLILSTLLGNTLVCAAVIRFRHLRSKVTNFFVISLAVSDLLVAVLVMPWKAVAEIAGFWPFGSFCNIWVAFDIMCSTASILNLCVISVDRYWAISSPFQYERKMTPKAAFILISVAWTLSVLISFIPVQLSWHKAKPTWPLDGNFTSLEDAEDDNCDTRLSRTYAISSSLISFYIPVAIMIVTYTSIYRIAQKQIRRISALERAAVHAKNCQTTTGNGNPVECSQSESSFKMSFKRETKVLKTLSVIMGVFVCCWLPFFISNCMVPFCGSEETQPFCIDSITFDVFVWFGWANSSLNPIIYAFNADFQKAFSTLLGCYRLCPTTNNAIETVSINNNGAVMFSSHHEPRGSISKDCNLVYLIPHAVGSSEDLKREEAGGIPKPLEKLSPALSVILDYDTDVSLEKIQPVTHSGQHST
# [4] = target: D(2) dopamine receptor (Rattus norvegicus) (UniProt P61169); assay: Agonist activity at rat dopamine D2(short) receptor expressed in CHOK1 cells by [35S]GTPgammaS binding assay relative to quinpirole; format: functional, cell-based; settings: CHO-K1
# Sequence of D(2) dopamine receptor (Rattus norvegicus) (P61169 whole entry): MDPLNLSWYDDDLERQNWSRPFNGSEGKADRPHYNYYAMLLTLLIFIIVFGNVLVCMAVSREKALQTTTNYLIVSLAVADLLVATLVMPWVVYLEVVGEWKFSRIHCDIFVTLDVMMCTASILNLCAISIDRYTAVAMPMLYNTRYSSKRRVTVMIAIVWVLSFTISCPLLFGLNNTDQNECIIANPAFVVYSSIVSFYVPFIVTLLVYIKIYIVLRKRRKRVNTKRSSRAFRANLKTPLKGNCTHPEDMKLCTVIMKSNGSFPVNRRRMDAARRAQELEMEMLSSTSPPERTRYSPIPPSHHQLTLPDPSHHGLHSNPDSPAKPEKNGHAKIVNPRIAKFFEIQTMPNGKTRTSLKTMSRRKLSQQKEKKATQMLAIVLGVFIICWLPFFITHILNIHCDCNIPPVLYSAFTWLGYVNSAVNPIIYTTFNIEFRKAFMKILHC
# [5] = target: T1, D(2) dopamine receptor; assay: Agonist activity at rat dopamine D2(short) receptor expressed in CHOK1 cells by [35S]GTPgammaS binding assay; format: functional, cell-based, CHO-K1
# [6] = target: D(2) dopamine receptor (Homo sapiens, UniProt P14416); assay: biochemical
# Sequence of D(2) dopamine receptor (Homo sapiens, UniProt P14416) (P14416 whole entry): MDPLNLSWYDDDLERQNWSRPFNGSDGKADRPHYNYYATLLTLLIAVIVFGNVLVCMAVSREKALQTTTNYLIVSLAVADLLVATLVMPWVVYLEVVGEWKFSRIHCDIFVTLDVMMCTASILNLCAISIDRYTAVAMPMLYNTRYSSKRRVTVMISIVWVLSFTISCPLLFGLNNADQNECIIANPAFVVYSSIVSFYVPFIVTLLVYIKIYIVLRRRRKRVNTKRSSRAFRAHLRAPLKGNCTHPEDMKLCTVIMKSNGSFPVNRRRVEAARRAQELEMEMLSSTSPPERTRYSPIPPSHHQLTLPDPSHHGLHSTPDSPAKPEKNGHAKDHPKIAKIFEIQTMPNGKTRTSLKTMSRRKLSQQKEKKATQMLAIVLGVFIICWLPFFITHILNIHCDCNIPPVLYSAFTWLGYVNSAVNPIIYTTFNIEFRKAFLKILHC
# Description: Displacement of [3H]raclopride from human cloned dopamine D2 receptor expressed in CHO cell membrane
# T1 sequence (P61169 whole entry): as the sequence (P61169 whole entry) above
smiles,measurement,setting,value
CN1CCc2cc(N)cc3c2[C@H]1Cc1ccc(O)c(O)c1-3,Ki,[1],19.9 nM
CN1CCc2cc(OCCO)cc3c2[C@H]1Cc1ccc(O)c(O)c1-3,Ki,[2],347 nM
same,Ki,[3],5300 nM
same,Efficacy,[4],19%
same,EC50,[5],315 nM
CN1CCc2cc(OCCOCCOc3cc4c5c(c3)-c3c(ccc(O)c3O)C[C@H]5N(C)CC4)cc3c2[C@H]1Cc1ccc(O)c(O)c1-3,Ki,[2],17200 nM
same,Ki,[3],> 10000 nM
same,EC50,[5],> 10000 nM
CCCCOc1cc2c3c(c1)-c1c(ccc(O)c1O)C[C@H]3N(C)CC2,Ki,[2],60 nM
same,Ki,[3],2100 nM
same,Efficacy,[4],57%
same,EC50,[5],58 nM
CCOc1cc2c3c(c1)-c1c(ccc(O)c1O)C[C@H]3N(C)CC2,Ki,[2],44 nM
same,Ki,[3],2900 nM
same,Efficacy,[4],70%
same,EC50,[5],55 nM
CN1CCc2cc(F)cc3c2[C@H]1Cc1ccc(O)c(O)c1-3,Ki,[1],0.43 nM
CN1CCc2cc(OCCOc3cc4c5c(c3)-c3c(ccc(O)c3O)C[C@H]5N(C)CC4)cc3c2[C@H]1Cc1ccc(O)c(O)c1-3,Ki,[2],345 nM
same,Ki,[3],5200 nM
same,Efficacy,[4],18%
same,EC50,[5],308 nM
COc1cc2c3c(c1)-c1c(ccc(O)c1O)CC3N(C)CC2 (stereo unspecified),Ki,[2],74 nM
same,Ki,[3],2600 nM
same,Efficacy,[4],66%
same,EC50,[5],114 nM
CN1CCc2cc(OCCOCCO)cc3c2[C@H]1Cc1ccc(O)c(O)c1-3,Ki,[2],587 nM
same,Ki,[3],7600 nM
same,Efficacy,[4],58%
same,EC50,[5],939 nM
CCCOc1cc2c3c(c1)-c1c(ccc(O)c1O)C[C@H]3N(C)CC2,Ki,[2],75 nM
same,Ki,[3],3500 nM
same,Efficacy,[4],71%
same,EC50,[5],76 nM
CN1CCc2cc(-c3ccc(O)cc3)cc3c2[C@H]1Cc1ccc(O)c(O)c1-3,Ki,[6],3.8 nM
CSc1cc2c3c(c1)-c1c(ccc(O)c1O)C[C@H]3N(C)CC2,Ki,[1],54.7 nM
CN1CCc2cc(-c3ccccc3)cc3c2[C@H]1Cc1ccc(O)c(O)c1-3,Ki,[6],88 nM
